Biological target: T1, human TRPV1 (Homo sapiens, UniProt Q8NER1)
T1 construct: expressed in transfected cells
Format: cell-based
Protocol: Oocytes were held at −60 mV and data normalised to currents elicited by 10 μM capsaicin. (D) Reversibility of DkTx and Y35G evoked rat TRPV1 response at the indicated peptide concentrations using TEVC oocytes. Data points represent the fraction of currents remaining during the washout as a ratio to the maximal current evoked by each sample. (E) Washout shown as fractional current determined by whole‐cell patch clamp recordings from HEK293 cells expressing TRPV1 (voltage‐clamped at −80 mV). […] The time constant for decay was not fitted and calculated in panels D and E, as it could not be accurately determined for data sets with minimal washout over the experimental time course. All data are mean ± standard error of the mean (n=5–7).

T1 sequence (Q8NER1 whole entry): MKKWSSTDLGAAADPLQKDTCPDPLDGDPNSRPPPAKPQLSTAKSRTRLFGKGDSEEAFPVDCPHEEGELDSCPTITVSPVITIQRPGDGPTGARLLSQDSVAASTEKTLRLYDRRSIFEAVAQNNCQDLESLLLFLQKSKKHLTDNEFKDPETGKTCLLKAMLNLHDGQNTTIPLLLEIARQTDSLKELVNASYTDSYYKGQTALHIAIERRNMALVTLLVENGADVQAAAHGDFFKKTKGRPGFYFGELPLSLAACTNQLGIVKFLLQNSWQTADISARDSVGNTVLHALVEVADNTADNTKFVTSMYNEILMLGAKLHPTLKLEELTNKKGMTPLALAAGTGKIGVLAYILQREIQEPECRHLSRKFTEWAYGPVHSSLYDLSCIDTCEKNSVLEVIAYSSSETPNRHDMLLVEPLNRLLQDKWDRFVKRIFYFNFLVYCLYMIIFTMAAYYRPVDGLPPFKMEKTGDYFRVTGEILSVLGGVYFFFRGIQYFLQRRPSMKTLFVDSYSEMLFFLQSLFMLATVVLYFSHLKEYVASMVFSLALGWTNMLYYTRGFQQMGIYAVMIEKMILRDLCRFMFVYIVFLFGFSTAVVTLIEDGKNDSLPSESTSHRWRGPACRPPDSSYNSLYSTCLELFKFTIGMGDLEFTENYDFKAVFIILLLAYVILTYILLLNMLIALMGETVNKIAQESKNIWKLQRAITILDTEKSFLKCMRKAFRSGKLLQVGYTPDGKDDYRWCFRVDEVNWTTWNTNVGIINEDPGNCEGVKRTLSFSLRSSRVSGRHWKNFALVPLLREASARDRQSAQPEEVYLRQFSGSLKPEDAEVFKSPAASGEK

SMILES	reversibility of TRPV1 current upon washing	inhibition of iDkTx-evoked currents (10 μM ruthenium red against 2 μM iDkTx, +80 mV, HEK293, Figure 1E–F)
COc1cc(CNC(=O)CCCC/C=C/C(C)C)ccc1O [capsaicin]	rapidly reversible upon washing	
N.N.N.N.N.N.N.N.N.N.N.N.N.N.[Cl-].[Cl-].[Cl-].[Cl-].[Cl-].[Cl-].[O-2].[O-2].[Ru+3].[Ru+3].[Ru+4] [ruthenium red]		fully inhibited

Reference: paper PMC10952689 (Angewandte Chemie (International Ed. in English), 2023)
